Measurements as given in Sander's compilation of Henry's law constants (doi:10.1016/0045-6535(85)90029-3).

Assay: Henry solubility constant Hcp at 298.15 K (mol/(m3 Pa))
Conditions: reference: Oliver (1985)

Row | Structure (SMILES) | Henry solubility constant Hcp
1 | Clc1cccc(Cl)c1Cl [1,2,3-trichlorobenzene] | 0.011
2 | Clc1cc(Cl)c(Cl)cc1Cl [1,2,4,5-tetrachlorobenzene] | 0.0099
3 | Clc1cc(Cl)cc(Cl)c1 [1,3,5-trichlorobenzene] | 0.0052
4 | Clc1cccc(Cl)c1 [1,3-dichlorobenzene] | 0.0055
5 | Clc1ccc(Cl)cc1 [1,4-dichlorobenzene] | 0.0066
6 | Clc1cccc(-c2cccc(Cl)c2Cl)c1Cl [2,2',3,3'-tetrachlorobiphenyl] | 0.082
7 | Clc1cc(Cl)c(-c2cc(Cl)c(Cl)cc2Cl)cc1Cl [2,2',4,4',5,5'-hexachlorobiphenyl] | 0.16
8 | Clc1ccc(Cl)c(-c2cc(Cl)c(Cl)cc2Cl)c1 [2,2',4,5,5'-pentachlorobiphenyl] | 0.14
9 | Clc1ccc(Cl)c(-c2cc(Cl)ccc2Cl)c1 [2,2',5,5'-tetrachlorobiphenyl] | 0.082
10 | Clc1ccc(Cl)c(-c2ccccc2Cl)c1 [2,2',5-trichlorobiphenyl] | 0.049
11 | Cc1c(Cl)ccc(Cl)c1Cl [2,3,6-trichloromethylbenzene] | 0.0066
12 | Cc1cc(Cl)c(Cl)cc1Cl [2,4,5-trichloromethylbenzene] | 0.0066
13 | ClC(Cl)=C(Cl)C(Cl)=C(Cl)Cl [hexachlorobutadiene] | 0.0023
14 | ClC(Cl)=C(Cl)c1c(Cl)c(Cl)c(Cl)c(Cl)c1Cl [octachlorostyrene] | 0.076
15 | Cc1c(Cl)c(Cl)c(Cl)c(Cl)c1Cl [pentachloromethylbenzene] | 0.013
